# Key:
# [1] = Stability in serum (FCS), read out by p21 promoter inducing activity; type: in vitro ADME; conditions: FCS, 37° C.; activity at incubation time zero taken as 100%; FIG. 7
# Description: The stability of SCOP 152, SCOP 304, and SCOP 402 in serum was evaluated by the method shown below: 1 μl of 10 mM SCOP 152, SCOP 304, and SCOP 402 was added to 99 μl FCS, and incubated at 37° C. Each hour, NaCl in a sufficient amount for saturation and 1 ml of ethyl acetate were added to each mixture. After extraction, from 800 μl of the ethyl acetate phase, the ethyl acetate was distilled off, and then 100 μl of DMSO was added to the residue. The resulting solution was further diluted ten times with DMSO and used to measure p21 promoter inducing activity. Activity at incubation time zero was taken as 100%, and activities were compared (FIG. 7).
# human HDAC1 = target: T1, human HDAC1 (Homo sapiens, UniProt Q13547); assay: In vitro HDAC inhibition activity, [3H]-acetylated histone substrate, HDAC1; type: biochemical; conditions: Table 3
# T1 construct: FLAG; made in house; host or cells: 293T cells (transient transfection, anti-FLAG immunoprecipitation, FLAG peptide elution)
# in vitro = conditions: human, Cancer-Cell-Selective Cytotoxicity, LD50 for normal cells/LD50 for cancer cells (TIG-3/HeLa)
# Description: Human normal lung cells (TIG-3) and human uterine cancer cells (HeLa) were used to test SCOP cytotoxicity. These TIG-3 and HeLa cells were cultured in a DMEM medium comprising 10% FBS at 37° C. in the presence of 5% carbon dioxide in a steam-saturated incubator. The TIG-3 and HeLa cells were plated in 100 μl/well of the above-described medium on a 96-well microtiter plate, at a density of 30,000 cells/well and 10,000 cells/well respectively. This was then cultured for 18 hours. Test compound solution diluted with medium was added to each well and culture was continued for another 48 hours.
# 30 μl of supernatant from each well was transferred to another 96-well microtiter plate (A), and the remaining supernatant was discarded. 100 μl of 0.5% Triton-X/PBS was added to each well to lyse the cells, and 30 μl was then transferred to each respective well of another 96-well microtiter plate (B). 30 μl of LDH-Cytotoxic Test (Wako) substrate solution was added to each well of these 96-well microtiter plates A and B, causing a color reaction. Once the color reaction was sufficiently progressed, it was stopped by adding 60 μl of a quenching solution. Color intensity was measured at OD560 nm using a microplate reader (Softmax). [A/(A+B)] was calculated as the free-LDH ratio. […] The higher the activity value for cancer-cell-selective cell damage (LD50 for normal cells/LD50 for cancer cells), the more that cancer-cell-selective apoptosis was induced.
# T1 sequence (Q13547 whole entry): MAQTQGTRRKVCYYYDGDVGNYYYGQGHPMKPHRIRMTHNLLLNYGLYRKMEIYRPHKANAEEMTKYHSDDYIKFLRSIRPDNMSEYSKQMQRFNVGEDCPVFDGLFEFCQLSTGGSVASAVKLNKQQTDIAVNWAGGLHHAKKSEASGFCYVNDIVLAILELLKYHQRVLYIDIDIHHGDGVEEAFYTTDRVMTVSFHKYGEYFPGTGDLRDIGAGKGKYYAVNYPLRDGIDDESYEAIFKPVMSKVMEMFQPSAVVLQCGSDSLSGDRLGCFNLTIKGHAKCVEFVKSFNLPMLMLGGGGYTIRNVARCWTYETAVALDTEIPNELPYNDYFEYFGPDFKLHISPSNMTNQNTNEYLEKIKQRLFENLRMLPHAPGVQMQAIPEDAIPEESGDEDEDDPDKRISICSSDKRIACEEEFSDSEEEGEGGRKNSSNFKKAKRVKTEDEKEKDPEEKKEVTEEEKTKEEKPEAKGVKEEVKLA
smiles,measurement,setting,value
"CC[C@H](C)[C@@H]1NC(=O)[C@@H](Cc2ccc(OC)cc2)NC(=O)[C@H](CCCCCSSc2ccncc2)NC(=O)[C@H]2CCCN2C1=O [SCOP 402, cyclo(-L-Am7(S4Py)-D-Tyr(Me)-L-Ile-D-Pro-)]",Retention of activity in serum,[1],stably retain activity in serum for longer than SCOP 152
same,IC50,human HDAC1; hybrid with DTT (/DTT),0.553 nM
same,IC50,"human HDAC1; hybrid, without DTT",6.76 nM
same,selectivity ratio at 48 h,in vitro; with DTT (/DTT),27.8
same,selectivity ratio at 48 h,in vitro; without DTT,11.4
